Reference: patent publication US12582625B2, “Methods for treating neuroblastoma” (priority 2015, dated 2026)
“And” between values parts separate entries of the source, which are not always exact repeats. Equal entries are not always repeated.

What was measured:
[1] = NMTRC 002: DFMO serum pharmacokinetics in children with NB; settings: for AUC(0-t) / Tmax / Cmax: human, serum
Protocol: Pharmacokinetic (PK) Analytical Method and Sample Collection. Patients were consented for all pharmacokinetic sampling and analysis. […] The extracted samples were injected into a liquid chromatograph equipped with an Atlantis Hilic Silica, 50×4.6 mm, 3 μm column. The mobile phase A was a mixture of Milli-Q type water with acetonitrile and ammonium acetate. The validated calibration range for this assay was from 50 to 100,000 ng/mL. […] Blood was not collected beyond 6 hours post dose as this trial was conducted on an outpatient basis, and this was judged to be an undue burden on patients.
Statistical Methods. […] Urinary polyamine levels were derived from duplicate measurements of individual samples. […] Fisher's Exact Test was used to assess the likelihood that increases in urinary polyamine levels were associated with disease progression. Friedman's test for repeated measures analysis of variance was used to assess changes in contents of individual urinary polyamines.
Samples were collected from patients prior to, and again at times 0.5, 1, 3, and 6 hours following drug administration on days 1 and 8 of the first cycle. […] Subsequent cycles commenced the day following the last day of the previous cycle.

NB cells = settings: DFMO in the 50-150 μM range; cited from earlier work
[2] = toxicities related to DFMO alone
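For ALT elevation, maximum Grade 2, patients (%) in this document: Open-label multicenter phase I 3+3 dose escalation in patients aged 0-21 years with relapsed or refractory neuroblastoma, dosed twice daily.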
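For ALT elevation, maximum Grade 3, patients (%) in this document: Open-label multicenter phase I 3+3 dose escalation in patients aged 0-21 years with relapsed or refractory neuroblastoma, dosed twice daily.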
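For dose-limiting toxicities (DLTs) or drug related serious adverse events (SAEs) in this document: Open-label multicenter phase I 3+3 dose escalation in patients aged 0-21 years with relapsed or refractory neuroblastoma, dosed twice daily.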
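For tolerability in pediatric patients in this document: Open-label multicenter phase I 3+3 dose escalation in patients aged 0-21 years with relapsed or refractory neuroblastoma, dosed twice daily.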

SMILES: NCCCC(N)(C(=O)O)C(F)F (stereo not drawn) [DFMO, 2,5-diamino-2-(difluoromethyl) pentanoic acid]
- dose-limiting toxicities (DLTs) or drug related serious adverse events (SAEs) (500-1500 mg/m^2 BID, all dose levels): No dose-limiting toxicities (DLTs) or drug related serious adverse events (SAEs) were observed
- tolerability in pediatric patients (500-1500 mg/m^2 twice per day by mouth): well tolerated
- ALT elevation, maximum Grade 2, patients (%) (Cycle 1 (N = 21)): 1 (5%)
- ALT elevation, maximum Grade 3, patients (%) (Cycle 1 (N = 21)): 0
- ALT elevation, maximum Grade 4, patients (%) (Cycle 1 (N = 21)): 0
- ALT elevation, maximum Grade 5, patients (%) (Cycle 1 (N = 21)): 0
- AST elevation, maximum Grade 2, patients (%) (Cycle 1 (N = 21)): 0
- AST elevation, maximum Grade 3, patients (%) (Cycle 1 (N = 21)): 1 (5%)
- AST elevation, maximum Grade 4, patients (%) (Cycle 1 (N = 21)): 0
- AST elevation, maximum Grade 5, patients (%) (Cycle 1 (N = 21)): 0
- Anemia, maximum Grade 2, patients (%) (Cycle 1 (N = 21)): 2 (10%)
- Anemia, maximum Grade 3, patients (%) (Cycle 1 (N = 21)): 0
- Anemia, maximum Grade 4, patients (%) (Cycle 1 (N = 21)): 1 (5%)
- Anemia, maximum Grade 5, patients (%) (Cycle 1 (N = 21)): 0
- Anorexia, maximum Grade 2, patients (%) (Cycle 1 (N = 21)): 0
- Anorexia, maximum Grade 3, patients (%) (Cycle 1 (N = 21)): 1 (5%)
- Anorexia, maximum Grade 4, patients (%) (Cycle 1 (N = 21)): 0
- Anorexia, maximum Grade 5, patients (%) (Cycle 1 (N = 21)): 0
- Conjunctivitis, maximum Grade 2, patients (%) (Cycle 1 (N = 21)): 1 (5%)
- Conjunctivitis, maximum Grade 3, patients (%) (Cycle 1 (N = 21)): 0
- Conjunctivitis, maximum Grade 4, patients (%) (Cycle 1 (N = 21)): 0
- Conjunctivitis, maximum Grade 5, patients (%) (Cycle 1 (N = 21)): 0
- Constipation, maximum Grade 2, patients (%) (Cycle 1 (N = 21)): 1 (5%)
- Constipation, maximum Grade 3, patients (%) (Cycle 1 (N = 21)): 0
- Constipation, maximum Grade 4, patients (%) (Cycle 1 (N = 21)): 0
- Constipation, maximum Grade 5, patients (%) (Cycle 1 (N = 21)): 0
- Diarrhea, maximum Grade 2, patients (%) (Cycle 1 (N = 21)): 1 (5%)
- Diarrhea, maximum Grade 3, patients (%) (Cycle 1 (N = 21)): 0
- Diarrhea, maximum Grade 4, patients (%) (Cycle 1 (N = 21)): 0
- Diarrhea, maximum Grade 5, patients (%) (Cycle 1 (N = 21)): 0
- GGT elevation, maximum Grade 2, patients (%) (Cycle 1 (N = 21)): 1 (5%)
- GGT elevation, maximum Grade 3, patients (%) (Cycle 1 (N = 21)): 0
- GGT elevation, maximum Grade 4, patients (%) (Cycle 1 (N = 21)): 0
- GGT elevation, maximum Grade 5, patients (%) (Cycle 1 (N = 21)): 0
- Hypoalbumenia, maximum Grade 2, patients (%) (Cycle 1 (N = 21)): 1 (5%)
- Hypoalbumenia, maximum Grade 3, patients (%) (Cycle 1 (N = 21)): 0
- Hypoalbumenia, maximum Grade 4, patients (%) (Cycle 1 (N = 21)): 0
- Hypoalbumenia, maximum Grade 5, patients (%) (Cycle 1 (N = 21)): 0
- Hypophosphatemia, maximum Grade 2, patients (%) (Cycle 1 (N = 21)): 1 (5%)
- Hypophosphatemia, maximum Grade 3, patients (%) (Cycle 1 (N = 21)): 0
- Hypophosphatemia, maximum Grade 4, patients (%) (Cycle 1 (N = 21)): 0
- Hypophosphatemia, maximum Grade 5, patients (%) (Cycle 1 (N = 21)): 0
- Infection, sinus, maximum Grade 2, patients (%) (Cycle 1 (N = 21)): 0
- Infection, sinus, maximum Grade 3, patients (%) (Cycle 1 (N = 21)): 0
- Infection, sinus, maximum Grade 4, patients (%) (Cycle 1 (N = 21)): 0
- Infection, sinus, maximum Grade 5, patients (%) (Cycle 1 (N = 21)): 0
- Mouth pain, maximum Grade 2, patients (%) (Cycle 1 (N = 21)): 0
- Mouth pain, maximum Grade 3, patients (%) (Cycle 1 (N = 21)): 0
- Mouth pain, maximum Grade 4, patients (%) (Cycle 1 (N = 21)): 0
- Mouth pain, maximum Grade 5, patients (%) (Cycle 1 (N = 21)): 0
- Nausea, maximum Grade 2, patients (%) (Cycle 1 (N = 21)): 0
- Nausea, maximum Grade 3, patients (%) (Cycle 1 (N = 21)): 0
- Nausea, maximum Grade 4, patients (%) (Cycle 1 (N = 21)): 0
- Nausea, maximum Grade 5, patients (%) (Cycle 1 (N = 21)): 0
- Neuropathy, maximum Grade 2, patients (%) (Cycle 1 (N = 21)): 0
- Neuropathy, maximum Grade 3, patients (%) (Cycle 1 (N = 21)): 0
- Neuropathy, maximum Grade 4, patients (%) (Cycle 1 (N = 21)): 0
- Neuropathy, maximum Grade 5, patients (%) (Cycle 1 (N = 21)): 0
- Neutrophil count decrease, maximum Grade 2, patients (%) (Cycle 1 (N = 21)): 1 (5%)
- Neutrophil count decrease, maximum Grade 3, patients (%) (Cycle 1 (N = 21)): 1 (5%)
- Neutrophil count decrease, maximum Grade 4, patients (%) (Cycle 1 (N = 21)): 0
- Neutrophil count decrease, maximum Grade 5, patients (%) (Cycle 1 (N = 21)): 0
- Pain, maximum Grade 2, patients (%) (Cycle 1 (N = 21)): 0
- Pain, maximum Grade 3, patients (%) (Cycle 1 (N = 21)): 0
- Pain, maximum Grade 4, patients (%) (Cycle 1 (N = 21)): 0
- Pain, maximum Grade 5, patients (%) (Cycle 1 (N = 21)): 0
- Platelet count decrease, maximum Grade 2, patients (%) (Cycle 1 (N = 21)): 1 (5%)
- Platelet count decrease, maximum Grade 3, patients (%) (Cycle 1 (N = 21)): 1 (5%)
- Platelet count decrease, maximum Grade 4, patients (%) (Cycle 1 (N = 21)): 0
- Platelet count decrease, maximum Grade 5, patients (%) (Cycle 1 (N = 21)): 0
- Rash, maximum Grade 2, patients (%) (Cycle 1 (N = 21)): 0
- Rash, maximum Grade 3, patients (%) (Cycle 1 (N = 21)): 0
- Rash, maximum Grade 4, patients (%) (Cycle 1 (N = 21)): 0
- Rash, maximum Grade 5, patients (%) (Cycle 1 (N = 21)): 0
- Sleep disturbance, maximum Grade 2, patients (%) (Cycle 1 (N = 21)): 1 (5%)
- Sleep disturbance, maximum Grade 3, patients (%) (Cycle 1 (N = 21)): 0
- Sleep disturbance, maximum Grade 4, patients (%) (Cycle 1 (N = 21)): 0
- Sleep disturbance, maximum Grade 5, patients (%) (Cycle 1 (N = 21)): 0
- Urinary retention, maximum Grade 2, patients (%) (Cycle 1 (N = 21)): 1 (5%)
- Urinary retention, maximum Grade 3, patients (%) (Cycle 1 (N = 21)): 0
- Urinary retention, maximum Grade 4, patients (%) (Cycle 1 (N = 21)): 0
- Urinary retention, maximum Grade 5, patients (%) (Cycle 1 (N = 21)): 0
- Vomiting, maximum Grade 2, patients (%) (Cycle 1 (N = 21)): 1 (5%)
- Vomiting, maximum Grade 3, patients (%) (Cycle 1 (N = 21)): 0
- Vomiting, maximum Grade 4, patients (%) (Cycle 1 (N = 21)): 0
- Vomiting, maximum Grade 5, patients (%) (Cycle 1 (N = 21)): 0
- White blood cell decreased, maximum Grade 2, patients (%) (Cycle 1 (N = 21)): 0
- White blood cell decreased, maximum Grade 3, patients (%) (Cycle 1 (N = 21)): 0
- White blood cell decreased, maximum Grade 4, patients (%) (Cycle 1 (N = 21)): 0
- White blood cell decreased, maximum Grade 5, patients (%) (Cycle 1 (N = 21)): 0
- ALT increase, N of subjects [2]: 1
- ANC decrease, N of subjects [2]: 2
- AST increase, N of subjects [2]: 1
- anemia, N of subjects [2]: 3
- anorexia, N of subjects [2]: 1
- constipation, N of subjects [2]: 1
- decreased platelet count, N of subjects [2]: 2
- diarrhea, N of subjects [2]: 1
- hypoalbuminemia, N of subjects [2]: 1
- hypophosphatemia, N of subjects [2]: 1
- increased GGT, N of subjects [2]: 1
- infection (conjunctivitis), N of subjects [2]: 1
- sleep disturbance, N of subjects [2]: 1
- urinary retention, N of subjects [2]: 1
- vomiting, N of subjects [2]: 1
- maximum tolerated dose (MTD) (up to 1500 mg/m^2 BID): not established
- AUC0-6 hrs ([1]; 500 mg/m^2 PO BID, Cycle 1): 39.90 ± 24.16 (mcg/mL) × hrs
- AUC0-6 hrs ([1]; 750 mg/m^2 PO BID, Cycle 1): 47.36 ± 18.57 (mcg/mL) × hrs
- AUC0-6 hrs ([1]; 750 mg/m^2 PO BID, Cycle 2 (with etoposide)): 62.84 ± 39.47 (mcg/mL) × hrs
- AUC0-6 hrs ([1]; 1000 mg/m^2 PO BID, Cycle 1): 60.05 ± 34.53 (mcg/mL) × hrs
- AUC0-6 hrs ([1]; 1000 mg/m^2 PO BID, Cycle 2 (with etoposide)): 50.18 ± 32.57 (mcg/mL) × hrs
- AUC0-6 hrs ([1]; 1500 mg/m^2 PO BID, Cycle 1): 108.38 ± 53.23 (mcg/mL) × hrs
- AUC0-6 hrs ([1]; 1500 mg/m^2 PO BID, Cycle 2 (with etoposide)): 120.69 ± 31.22 (mcg/mL) × hrs
- biologically effective doses of DFMO (serum concentration range) ([1]; from clinical benefit in this study and adult cancer prevention studies): 50-150 μM
- AUC(0-t) ([1]; oral, 500 mg/m2): 39000 ng·h/mL
- AUC(0-t) ([1]; oral, 1500 mg/m2): 121000 ng·h/mL
- Tmax ([1]; oral, mean tmax, all dose groups): 2.5 to 3.75 h
- Cmax ([1]; po, 500 mg/m2, Cmax mean ± SD, 500 mg/m^2 PO BID, Cycle 1): 9540 ± 5360 ng/mL
- Tmax ([1]; po, 500 mg/m2, tmax, 500 mg/m^2 PO BID, Cycle 1): 3.75 ± 1.39 h
- Cmax ([1]; po, 750 mg/m2, Cmax mean ± SD, 750 mg/m^2 PO BID, Cycle 1): 11900 ± 5220 ng/mL
- Cmax ([1]; po, 750 mg/m2, Cmax mean ± SD, 750 mg/m^2 PO BID, Cycle 2 (with etoposide)): 14200 ± 7920 ng/mL
- Tmax ([1]; po, 750 mg/m2, tmax, 750 mg/m^2 PO BID, Cycle 1): 3.6 ± 1.26 h
- Tmax ([1]; po, 750 mg/m2, tmax, 750 mg/m^2 PO BID, Cycle 2 (with etoposide)): 2.6 ± 0.89 h
- Cmax ([1]; po, 1000 mg/m2, Cmax mean ± SD, 1000 mg/m^2 PO BID, Cycle 1): 14700 ± 9070 ng/mL
- Cmax ([1]; po, 1000 mg/m2, Cmax mean ± SD, 1000 mg/m^2 PO BID, Cycle 2 (with etoposide)): 14300 ± 6180 ng/mL
- Tmax ([1]; po, 1000 mg/m2, tmax, 1000 mg/m^2 PO BID, Cycle 1): 3.17 ± 1.6 h
- Tmax ([1]; po, 1000 mg/m2, tmax, 1000 mg/m^2 PO BID, Cycle 2 (with etoposide)): 3 h
- Cmax ([1]; po, 1500 mg/m2, Cmax mean ± SD, 1500 mg/m^2 PO BID, Cycle 1): 29000 ± 15000 ng/mL
- Cmax ([1]; po, 1500 mg/m2, Cmax mean ± SD, 1500 mg/m^2 PO BID, Cycle 2 (with etoposide)): 30700 ± 8180 ng/mL
- Tmax ([1]; po, 1500 mg/m2, tmax, 1500 mg/m^2 PO BID, Cycle 1): 2.88 ± 1.45 h
- Tmax ([1]; po, 1500 mg/m2, tmax, 1500 mg/m^2 PO BID, Cycle 2 (with etoposide)): 2.5 ± 0.9 h
- mean Cmax and AUC versus oral dose ([1]; in vivo, po): increased in a linear fashion
- Overall average serum DFMO concentration ([1]; patients receiving 500 mg/m^2): 9.54 μg/mL and 52.24 μM
- Overall average serum DFMO concentration ([1]; patients receiving 1500 mg/m^2): 30.71 μg/mL and 168.10 μM
- killing of NB cells (NB cells): do not kill NB cells
